Results reported in patent US9801889B2, “Bicyclic heterocycles as FGFR4 inhibitors” (Incyte Corporation, priority 2015, dated 2017).
pIC50: −log10 of the molar value.

Legend:
FGFR1 = FGFR1 (Homo sapiens (Human), UniProt P11362); experiment: FGFR Enzymatic Assay (FRET peptide phosphorylation), FGFR1; conditions: IC50 ratio showing FGFR4 selectivity; pre-incubated for 4 hours
Text: (§1) The enzymes were purchased from Millipore or Invitrogen.
(§2) GraphPad prism3 was used to analyze the data. The IC50 values were derived by fitting the data to the equation for a sigmoidal dose-response with a variable slope. Y=Bottom+(Top-Bottom)/(1+10^((LogIC50-X)*HillSlope)) where X is the logarithm of concentration and Y is the response.

FGFR2 = FGFR2 (Homo sapiens (Human), UniProt P21802); experiment: FGFR Enzymatic Assay (FRET peptide phosphorylation), FGFR2; conditions: IC50 ratio showing FGFR4 selectivity; pre-incubated for 4 hours
Text: as §1, §2

FGFR3 = FGFR3 (Homo sapiens (Human), UniProt P22607); experiment: FGFR Enzymatic Assay (FRET peptide phosphorylation), FGFR3; conditions: IC50 ratio showing FGFR4 selectivity; pre-incubated for 4 hours
Text: as §1, §2

FGFR4 = FGFR4 (Homo sapiens (Human), UniProt P22455); experiment: FGFR Enzymatic Assay (FRET peptide phosphorylation), FGFR4
Sequence of FGFR4 (P22455 22-802): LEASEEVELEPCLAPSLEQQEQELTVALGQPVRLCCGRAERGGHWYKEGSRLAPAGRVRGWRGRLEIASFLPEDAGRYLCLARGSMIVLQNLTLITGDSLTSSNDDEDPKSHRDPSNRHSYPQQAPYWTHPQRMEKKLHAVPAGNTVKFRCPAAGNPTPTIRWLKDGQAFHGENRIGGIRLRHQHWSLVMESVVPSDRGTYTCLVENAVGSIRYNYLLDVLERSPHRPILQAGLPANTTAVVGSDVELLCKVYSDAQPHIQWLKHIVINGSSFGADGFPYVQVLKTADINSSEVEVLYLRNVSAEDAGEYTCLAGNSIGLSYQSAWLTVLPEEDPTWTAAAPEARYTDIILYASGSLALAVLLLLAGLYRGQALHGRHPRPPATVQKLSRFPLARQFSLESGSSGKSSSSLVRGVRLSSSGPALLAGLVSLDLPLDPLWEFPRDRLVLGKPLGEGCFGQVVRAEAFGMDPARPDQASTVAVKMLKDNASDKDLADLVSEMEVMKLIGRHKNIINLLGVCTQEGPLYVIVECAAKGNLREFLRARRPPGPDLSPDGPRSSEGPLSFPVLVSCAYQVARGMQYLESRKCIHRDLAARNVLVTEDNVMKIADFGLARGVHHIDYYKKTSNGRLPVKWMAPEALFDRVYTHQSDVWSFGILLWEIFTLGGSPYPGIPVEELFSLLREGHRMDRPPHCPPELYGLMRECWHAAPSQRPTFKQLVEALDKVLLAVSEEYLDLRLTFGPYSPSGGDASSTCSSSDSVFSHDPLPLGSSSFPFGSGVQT
Text: as §1, §2

Sequence of FGFR3 (P22607 23-806): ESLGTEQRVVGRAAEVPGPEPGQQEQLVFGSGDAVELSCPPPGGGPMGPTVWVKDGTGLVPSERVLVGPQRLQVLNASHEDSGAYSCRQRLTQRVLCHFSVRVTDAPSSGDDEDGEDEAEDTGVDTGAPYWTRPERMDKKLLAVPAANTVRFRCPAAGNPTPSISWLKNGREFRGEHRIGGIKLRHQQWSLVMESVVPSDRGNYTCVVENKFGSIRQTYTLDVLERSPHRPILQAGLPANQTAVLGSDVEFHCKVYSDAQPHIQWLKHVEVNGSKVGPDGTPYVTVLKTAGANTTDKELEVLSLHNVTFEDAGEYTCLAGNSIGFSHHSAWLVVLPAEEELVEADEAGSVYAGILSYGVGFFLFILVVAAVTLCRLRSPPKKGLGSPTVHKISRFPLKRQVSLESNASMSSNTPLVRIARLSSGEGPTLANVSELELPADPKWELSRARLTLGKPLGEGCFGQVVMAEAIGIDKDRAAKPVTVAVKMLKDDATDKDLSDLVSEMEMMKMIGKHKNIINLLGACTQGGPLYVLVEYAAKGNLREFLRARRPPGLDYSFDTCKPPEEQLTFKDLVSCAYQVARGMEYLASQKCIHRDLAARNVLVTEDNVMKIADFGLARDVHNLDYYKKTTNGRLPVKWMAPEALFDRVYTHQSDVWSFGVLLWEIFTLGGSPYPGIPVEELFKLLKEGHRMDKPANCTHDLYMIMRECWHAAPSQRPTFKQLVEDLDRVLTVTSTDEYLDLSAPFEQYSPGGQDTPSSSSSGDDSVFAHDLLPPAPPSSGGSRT
Sequence of FGFR1 (P11362 22-822): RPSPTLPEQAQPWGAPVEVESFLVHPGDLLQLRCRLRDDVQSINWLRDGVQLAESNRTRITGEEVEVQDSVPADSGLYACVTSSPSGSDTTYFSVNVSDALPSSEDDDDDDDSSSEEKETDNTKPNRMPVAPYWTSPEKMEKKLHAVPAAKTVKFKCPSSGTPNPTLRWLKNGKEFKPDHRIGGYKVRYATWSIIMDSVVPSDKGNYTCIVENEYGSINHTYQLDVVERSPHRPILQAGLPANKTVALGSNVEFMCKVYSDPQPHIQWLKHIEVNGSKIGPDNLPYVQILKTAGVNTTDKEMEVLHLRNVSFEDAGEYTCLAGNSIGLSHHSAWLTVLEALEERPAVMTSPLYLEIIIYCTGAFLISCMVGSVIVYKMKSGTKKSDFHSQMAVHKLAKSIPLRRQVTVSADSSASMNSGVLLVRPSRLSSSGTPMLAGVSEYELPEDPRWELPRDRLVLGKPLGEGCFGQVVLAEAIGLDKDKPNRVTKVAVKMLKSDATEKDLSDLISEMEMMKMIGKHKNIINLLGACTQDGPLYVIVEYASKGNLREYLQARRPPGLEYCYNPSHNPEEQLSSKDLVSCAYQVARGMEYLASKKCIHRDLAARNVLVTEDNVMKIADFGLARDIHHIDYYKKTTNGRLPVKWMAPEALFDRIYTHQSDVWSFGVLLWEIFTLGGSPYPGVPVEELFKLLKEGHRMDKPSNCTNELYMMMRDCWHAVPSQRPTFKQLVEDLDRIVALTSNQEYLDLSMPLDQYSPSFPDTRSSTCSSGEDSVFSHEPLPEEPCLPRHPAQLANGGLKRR
Sequence of FGFR2 (P21802 22-821): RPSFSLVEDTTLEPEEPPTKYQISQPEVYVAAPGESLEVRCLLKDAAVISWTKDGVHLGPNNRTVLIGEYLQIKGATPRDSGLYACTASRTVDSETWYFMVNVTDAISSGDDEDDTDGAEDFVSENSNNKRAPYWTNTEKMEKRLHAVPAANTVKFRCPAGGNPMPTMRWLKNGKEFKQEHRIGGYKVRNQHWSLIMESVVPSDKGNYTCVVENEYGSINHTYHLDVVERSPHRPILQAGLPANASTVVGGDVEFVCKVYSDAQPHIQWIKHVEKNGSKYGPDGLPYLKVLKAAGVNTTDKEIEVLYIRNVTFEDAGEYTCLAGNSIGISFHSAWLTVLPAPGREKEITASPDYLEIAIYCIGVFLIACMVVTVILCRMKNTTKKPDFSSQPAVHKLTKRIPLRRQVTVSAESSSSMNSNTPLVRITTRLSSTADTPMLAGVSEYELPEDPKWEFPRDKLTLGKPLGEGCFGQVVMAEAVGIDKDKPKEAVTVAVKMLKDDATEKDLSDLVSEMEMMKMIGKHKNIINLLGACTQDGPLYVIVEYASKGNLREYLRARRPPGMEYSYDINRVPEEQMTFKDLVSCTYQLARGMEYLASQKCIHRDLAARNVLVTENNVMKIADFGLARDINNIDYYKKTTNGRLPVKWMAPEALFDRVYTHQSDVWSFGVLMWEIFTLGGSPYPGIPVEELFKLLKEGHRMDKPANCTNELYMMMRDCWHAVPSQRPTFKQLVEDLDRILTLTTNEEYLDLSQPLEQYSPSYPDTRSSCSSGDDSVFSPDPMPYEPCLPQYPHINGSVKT

| Compound | FGFR1/FGFR4 (FGFR1) | FGFR2/FGFR4 (FGFR2) | FGFR3/FGFR4 (FGFR3) | pIC50 (FGFR4) |
| --- | --- | --- | --- | --- |
| C=CC(=O)Nc1cnn(CC(=O)NC)c1-c1cc2c(cn1)CN(c1c(F)c(OC)cc(OC)c1F)C(=O)C21CC1 [Example 20, N-(5-(2′-(2,6-difluoro-3,5-dimethoxyphenyl)-3′-oxo-2′,3′-dihydro-1′H-spiro[cyclopropane-1,4′-[2,7]naphthyridine]-6′-yl)-1-(2-(methylamino)-2-oxoethyl)-1H-pyrazol-4-yl)acrylamide] | >50 | >100 | >100 | 7.52 to 8.00 |
| C=CC(=O)Nc1cn(CC2CCOCC2)nc1-c1cc2c(cn1)CN(c1c(F)c(OC)cc(OC)c1F)C(=O)C21CC1 [Example 35, N-(3-(2′-(2,6-difluoro-3,5-dimethoxyphenyl)-3′-oxo-2′,3′-dihydro-1′H-spiro[cyclopropane-1,4′-[2,7]naphthyridine]-6′-yl)-1-((tetrahydro-2H-pyran-4-yl)methyl)-1H-pyrazol-4-yl)acrylamide] | >100 | >100 | >100 |  |
| C=CC(=O)Nc1cn(CC(=O)N(C)C)nc1-c1cc2c(cn1)CN(c1c(F)c(OC)cc(OC)c1F)C(=O)C21CC1 [Example 36, N-(3-(2′-(2,6-difluoro-3,5-dimethoxyphenyl)-3′-oxo-2′,3′-dihydro-1′H-spiro[cyclopropane-1,4′-[2,7]naphthyridine]-6′-yl)-1-(2-(dimethylamino)-2-oxoethyl)-1H-pyrazol-4-yl)acrylamide] | >100 | >100 | >100 |  |
| C=CC(=O)Nc1ccc(C)c(-c2ncc3c(n2)C2(CC2)C(=O)N(c2c(F)c(OC)cc(OC)c2F)C3)c1 [Example 37, N-(3-(6′-(2,6-difluoro-3,5-dimethoxyphenyl)-7′-oxo-6′,7′-dihydro-5′H-spiro[cyclopropane-1,8′-pyrido[4,3-d]pyrimidine]-2′-yl)-4-methylphenyl)acrylamide] | >100 | >100 | >100 |  |
